Where two headings read alike, the source gives them in different places. Ends that are not written are not given here.
Experiments:
DPPIV [1] = target: T1, DPPIV (Homo sapiens, UniProt P27487); assay: In vitro plasma stability of GLP-1 peptides secreted from human cells; type: in vitro ADME; design: human lymphocyte enriched plasma containing dipeptidylpeptidase activity; from tissue; host or cells: human lymphocyte enriched plasma; conditions: human lymphocyte enriched plasma, 37° C., 3 or 4 hours
From the text: HEK293 and hTERT-MSC cells were transiently transfected with constructs, encoding the heterologous stromelysin signal sequence, which is linked to GLP-1 variants encoding the following peptides: […]
Target sequence in this assay (P27487 whole entry): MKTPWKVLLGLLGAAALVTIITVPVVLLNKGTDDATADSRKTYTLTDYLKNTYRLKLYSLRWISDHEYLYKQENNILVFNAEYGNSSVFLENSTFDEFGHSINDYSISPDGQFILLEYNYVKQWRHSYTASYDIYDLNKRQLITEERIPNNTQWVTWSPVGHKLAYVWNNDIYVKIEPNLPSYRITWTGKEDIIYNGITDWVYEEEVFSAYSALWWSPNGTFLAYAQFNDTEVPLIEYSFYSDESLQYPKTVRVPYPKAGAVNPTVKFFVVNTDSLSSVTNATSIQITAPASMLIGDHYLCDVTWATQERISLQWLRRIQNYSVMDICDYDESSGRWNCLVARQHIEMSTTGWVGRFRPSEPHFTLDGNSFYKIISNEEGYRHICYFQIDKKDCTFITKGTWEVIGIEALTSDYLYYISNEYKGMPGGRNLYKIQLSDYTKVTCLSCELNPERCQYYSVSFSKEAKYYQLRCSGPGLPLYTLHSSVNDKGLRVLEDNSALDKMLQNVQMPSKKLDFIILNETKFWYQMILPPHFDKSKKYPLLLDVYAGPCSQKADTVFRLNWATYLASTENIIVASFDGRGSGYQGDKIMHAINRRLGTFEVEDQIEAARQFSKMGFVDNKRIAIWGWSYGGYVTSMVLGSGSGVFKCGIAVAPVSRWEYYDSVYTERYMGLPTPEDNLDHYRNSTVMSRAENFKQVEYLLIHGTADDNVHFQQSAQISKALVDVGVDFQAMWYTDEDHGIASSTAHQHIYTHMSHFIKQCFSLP

DPPIV [2] = target: T1, DPPIV; assay: In vitro plasma stability of GLP1CM peptides (kinetic test method); conditions: 10% human plasma; for remaining at 9 h, 1 μM: human, pH 7.8; for DT80: time needed to degrade active GLP-1 to 80% of the 0 h value, 1 μM peptide
Target sequence in this assay (P27487 39-766 limits assumed): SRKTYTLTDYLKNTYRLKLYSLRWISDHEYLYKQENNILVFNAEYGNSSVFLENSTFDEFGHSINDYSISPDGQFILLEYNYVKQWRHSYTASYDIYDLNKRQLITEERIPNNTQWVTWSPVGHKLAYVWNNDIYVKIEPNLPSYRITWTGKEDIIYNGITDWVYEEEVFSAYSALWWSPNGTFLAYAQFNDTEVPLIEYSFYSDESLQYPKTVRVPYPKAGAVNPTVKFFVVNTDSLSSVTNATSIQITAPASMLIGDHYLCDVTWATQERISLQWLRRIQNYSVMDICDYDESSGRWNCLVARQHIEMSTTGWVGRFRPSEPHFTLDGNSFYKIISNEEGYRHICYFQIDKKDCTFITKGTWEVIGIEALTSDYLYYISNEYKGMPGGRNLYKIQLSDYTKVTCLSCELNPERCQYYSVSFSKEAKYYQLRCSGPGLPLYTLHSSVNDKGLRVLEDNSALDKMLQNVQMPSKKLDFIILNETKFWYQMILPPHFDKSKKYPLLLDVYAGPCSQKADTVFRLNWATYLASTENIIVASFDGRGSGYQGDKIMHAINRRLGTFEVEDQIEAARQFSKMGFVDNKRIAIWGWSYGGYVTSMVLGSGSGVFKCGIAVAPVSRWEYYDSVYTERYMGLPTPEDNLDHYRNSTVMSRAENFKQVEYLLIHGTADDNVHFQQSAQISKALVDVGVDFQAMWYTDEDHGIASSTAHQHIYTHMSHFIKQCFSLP
From the text: (§1) Results are from triplicates in at least two independent experiments.

DPPIV [3] = target: T1, DPPIV
Target sequence in this assay (P27487 39-766 limits assumed): as above
From the text: as §1

DPPIV [4] = target: T1, DPPIV; assay: in vitro; conditions: plasma, pH 7.8
Target sequence in this assay (P27487 39-766 limits assumed): as above
From the text: as §1

[5] = In vitro human plasma stability of GLP-1CM peptides; conditions: 20 ng/ml, 37° C., 3 hours, GLP-1 (Active) ELISA
From the text: Dipeptidylpeptidase activity of the plasma was inhibited by an DPP-IV inhibitor (#DPP4, Biotrend).

[6] = tested on: type II diabetic mice (C57BL/Ks-Lepr^db/db); assay: In vivo bioactivity, blood glucose in type II diabetic mice; conditions: 5 μg peptide s.c. twice a day, day 2, 4, 7, 10, after overnight fast
Method: 11-week-old type II diabetic mice (C57BL/Ks-Lepr^db/db, Harlan) were treated with 5 μg peptide by subcutaneous injection twice a day at 9 a.m. and 5 p.m. (n=5 per group). Blood glucose was measured before (day 0) and after treatment with GLP^CM peptides (Day 2, 4, 7, 10) at 10 a.m. after an overnight fastening period. Data were presented in relation to blood glucose levels measured at day 0.

BALB/c mice = assay: In vivo study, immunogenicity; conditions: 5 repeated injections, 70 μg peptide/dose, i.v., over 22 d
Method: The trial was done in BALB/c mice receiving 5 repeated injections (70 μg peptide/dose, i.v.) over 22 d (n=5).
Spleens of the treated and control mice were explanted, T-cells isolated and stimulated with increasing amounts of antigene. Proliferative recall response is measured.

[7] = tested on: diabetic C57BL/KsJ@Rj-db (db/db) mice; assay: Dose-efficacy study in diabetic mice; type: in vivo
Method: A sixth group was treated with saline only. 7 animals were treated per group. Blood glucose was determined from tail bleeds directly before, 1 hour and 4 hours after injection. […] For every test substance a graph was prepared with the percentage difference of the blood glucose in relation to the start value for the different concentrations. […] Both models are sigmoidal fit models suitable for dose response evaluation.

[8] = tested on: C57BL/KsJ@Rj-db (db/db) mice; assay: Long-term treatment of db/db mice; type: in vivo
Method: Blood glucose was measured from a tail bleed after a 12-hour overnight fast 18 hours after s.c. injection of the test substances. […] The serum was analysed for insulin with the Insulin Mouse Ultrasensitive ELISA (Cat.#EIA-3440, DRG).

Molecule: GLP1(7-37)-IP2-GLP1(7-37) [compound 3]
- resistance to DPP-IV degradation (DPPIV [1]): nearly fully stabilised to DPP-IV degradation in vitro

Molecule: CC[C@H](C)[C@H](NC(=O)[C@H](Cc1ccccc1)NC(=O)[C@H](CCC(=O)O)NC(=O)[C@H](CCCCN)NC(=O)[C@H](C)NC(=O)[C@H](C)NC(=O)[C@H](CCC(N)=O)NC(=O)CNC(=O)[C@H](CCC(=O)O)NC(=O)[C@H](CC(C)C)NC(=O)[C@H](Cc1ccc(O)cc1)NC(=O)[C@H](CO)NC(=O)[C@H](CO)NC(=O)[C@@H](NC(=O)[C@H](CC(=O)O)NC(=O)[C@H](CO)NC(=O)[C@@H](NC(=O)[C@H](Cc1ccccc1)NC(=O)[C@@H](NC(=O)CNC(=O)[C@H](CCC(=O)O)NC(=O)[C@H](C)NC(=O)[C@@H](N)Cc1c[nH]cn1)[C@@H](C)O)[C@@H](C)O)C(C)C)C(=O)N[C@@H](C)C(=O)N[C@@H](Cc1c[nH]c2ccccc12)C(=O)N[C@@H](CC(C)C)C(=O)N[C@H](C(=O)N[C@@H](CCCCN)C(=O)NCC(=O)N[C@@H](CCCNC(=N)N)C(=O)NCC(=O)N[C@@H](CCCNC(=N)N)C(=O)N[C@@H](CCCNC(=N)N)C(=O)N[C@@H](CC(=O)O)C(=O)N[C@@H](Cc1ccccc1)C(=O)N1CCC[C@H]1C(=O)O)C(C)C [CM3-ANA06, reference compound]
- remaining at 9 h, 1 μM (DPPIV [2]): 11%
- DT80 (DPPIV [2]; 37° C.): 0.9 h

Molecule: HAEGTFTSDVSSYLEGQAAKEFIAWLVKGRGRRDAAAAVAIAEELG [CM3-ANA03]
- in vitro plasma stability, comparison (DPPIV [2]; 37° C.): strongly reduced stability compared to CM3
- remaining at 9 h, 1 μM (DPPIV [2]): 30%
- DT80 (DPPIV [2]; 37° C.): 1.6 h

Molecule: GLP-1(7-37) [compound 1, reference compound]
- resistance to DPP-IV degradation (DPPIV [1]): inactivated by DPP-IV in a similar way to synthetic GLP-1

Molecule: CC[C@H](C)[C@H](NC(=O)[C@H](Cc1ccccc1)NC(=O)[C@H](CCC(=O)O)NC(=O)[C@H](CCCCN)NC(=O)[C@H](C)NC(=O)[C@H](C)NC(=O)[C@H](CCC(N)=O)NC(=O)CNC(=O)[C@H](CCC(=O)O)NC(=O)[C@H](CC(C)C)NC(=O)[C@H](Cc1ccc(O)cc1)NC(=O)[C@H](CO)NC(=O)[C@H](CO)NC(=O)[C@@H](NC(=O)[C@H](CC(=O)O)NC(=O)[C@H](CO)NC(=O)[C@@H](NC(=O)[C@H](Cc1ccccc1)NC(=O)[C@@H](NC(=O)CNC(=O)[C@H](CCC(=O)O)NC(=O)[C@H](C)NC(=O)[C@@H](N)Cc1c[nH]cn1)[C@@H](C)O)[C@@H](C)O)C(C)C)C(=O)N[C@@H](C)C(=O)N[C@@H](Cc1c[nH]c2ccccc12)C(=O)N[C@@H](CC(C)C)C(=O)N[C@H](C(=O)N[C@@H](CCCCN)C(=O)NCC(=O)N[C@@H](CCCNC(=N)N)C(=O)NCC(=O)N[C@@H](CCCNC(=N)N)C(=O)N[C@@H](CCCNC(=N)N)C(=O)N[C@@H](CC(=O)O)C(=O)N[C@@H](Cc1ccccc1)C(=O)N1CCC[C@H]1C(=O)N[C@@H](CCC(=O)O)C(=O)N[C@@H](CCC(=O)O)C(=O)N[C@H](C(=O)N[C@@H](C)C(=O)O)C(C)C)C(C)C [CM3-ANA07]
- DT80 (DPPIV [3]): 2.0 h
- remaining at 9 h, 1 μM (DPPIV [4]): 37%

Molecule: HAEGTFTSDVSSYLEGQAAKEFIAWLVKGRGRRDFPEEVAIAEELGRRHAC [CM3-ANA09]
- DT80 (DPPIV [3]): 4.2 h
- remaining at 9 h, 1 μM (DPPIV [4]): 60%

Molecule: HAEGTFTSDVSSYLEGQAAKEFIAWLVKGRGRRDFAEEVAIAEELG [CM3-ANA02]
- remaining at 9 h, 1 μM (DPPIV [2]): 65%
- DT80 (DPPIV [2]; 37° C.): 4.5 h

Molecule: HAEGTFTSDVSSYLEGQAAKEFIAWLVKGRGAADFPEEVAIAEELG [CM3-ANA01]
- DT80 (DPPIV [3]): 12.5 h
- in vitro plasma stability, comparison (DPPIV [3]): higher plasma stability than CM3

Molecule: HAEGTFTSDVSSYLEGQAAKEFIAWLVKGRGRRDFPEEVAIAEELG [CM3]
- DT80 (DPPIV [2]; 37° C.): 4.4 h
- stability in human plasma in vitro [5]: significantly stabilized

Molecule: GLP-1(7-37)-IP2-RR-GLP1(7-37) [CM1]
- anti-hyperglycemia effect (blood glucose in relation to day 0) [6]: Best results
- anti-hyperglycemia effect (blood glucose in relation to day 0) ([6]; listed as SEQ ID No.:6): anti-hyperglycemia effect
- toxicity (BALB/c mice): no toxicity
- fall in plasma glucose @1 h ([7]; 1 hour after single s.c. injection of 1.1-3.0 nmol peptide, versus control): 50% ± 14%@1 h
- fall in plasma glucose @4 h ([7]; 4 hours after single s.c. injection of 1.1-3.0 nmol peptide, versus control): 0%@4 h
- ED50 (plasma glucose) ([7]; single s.c. dose, percentage decrease of blood glucose at 1 h, sigmoidal fit): 0.61 μg/mouse
- fasted blood glucose level ([8]; 12-hour overnight fast, 18 h after peptide injection): reduced
- non fasted blood glucose level compared to control ([8]; 1 h after s.c. peptide injection, 24 nmol/kg): 55%
- food consumption ([8]; weekly, 122 day treatment period, compared to the control, p<0.001): significantly lower

Molecule: HAEGTFTSDVSSYLEGQAAKEFIAWLVKGRGAADAAAAVAIAAALG [CM3-ANA04]
- remaining at 9 h, 1 μM (DPPIV [2]): 65%
- DT80 (DPPIV [2]; 37° C.): 4.7 h

B1: GLP-1(7-37)-IP2-RR-GLP2 (peptide)
chain: HAEGTFTSDVSSYLEGQAAKEFIAWLVKGRGRRDFPEEVAIAEELGRRHADGSFSDEMSTILDNLATRDFINWLIQTKITDKK
- anti-hyperglycemia effect (blood glucose in relation to day 0) [6]: anti-hyperglycemia effect
- stability in human plasma in vitro [5]: significantly stabilized

Reference: patent US8431533B2, “GLP-1 fusion peptides, their production and use” (Biocompatibles UK Ltd., priority 2005, dated 2013)
